Reference: PMC7582705, “Structure-Based Discovery of Novel Chemical Classes of Autotaxin Inhibitors” (International Journal of Molecular Sciences, 2020)
Like-named read-outs stand apart in the source and are kept apart here.

Columns and labels:
mouse ATX [1] = target: T1, mouse ATX (Mus musculus, UniProt Q9R1E6); assay: Amplex Red Lyso-phospholipase D assay, mouse ATX; format: biochemical
T1 construct: purchased Sino Biological
Experimental: All compounds proposed were assessed for their ATX inhibitory activity in vitro using the Amplex Red assay. The Amplex Red Lyso-phospholipase D assay is a fluorometry-based assay providing a sensitive method for measuring Lyso-phospholipase D (ATX) activity in vitro. In this enzyme-coupled assay, ATX activity is monitored indirectly using 10-acetyl-3,7-dihydrophenoxazine (Amplex Red reagent), a sensitive fluorogenic probe for H2O2. ATX initially cleaves the Lysophosphatidylcholine (LPC) substrate to yield choline and Lysophosphatidic acid (LPA), while choline gets subsequently oxidized by choline oxidase to betaine and H2O2. Lastly, H2O2, in the presence of horseradish peroxidase (HRP), reacts with Amplex Red reagent in a 1:1 stoichiometry to generate the highly fluorescent product resorufin.
The inhibition assay was performed as previously described with some modifications in order to accommodate the newly-discovered lag phase in ATX kinetics. To this end, and in order to provide adequate time to the hydrolysis of LPC by ATX, we added a 30min incubation period between ATX, inhibitors and LPC. Briefly, 2 μL of different concentrations of inhibitors diluted in DMSO (Sigma-Aldrich, St. Louis, MO, USA) were incubated with 50 µL of ATX 8 nM (human or mouse ATX from Sino Biological), and 48 µL reaction buffer (50 mM Tris-Cl pH 8.0 from Thermo Fisher Scientific, Waltham, MA, USA and 5 mM CaCl2 from Honeywell-Fluka, Charlotte, NC, USA) in a black 96-well microplate for 15 min at 37 °C. Thence, another 50 µL of reaction buffer with 200 μM LPC substrate 16:0 (Avanti Polar Lipids Inc, Alabaster, AL, USA) (final concentrations of LPC and ATX are 50 µM and 2 nM, respectively) was added to the reaction mixture and incubated for 30 min at 37 °C in order for ATX to convert LPC to LPA and choline. Finally, 50 µL of working solution containing 200 μM Amplex Red (Invitrogen, Carlsbad, CA, USA), 4 U/mL HRP (Sigma-Aldrich, St. Louis, MO, USA), 0.4 U/mL choline oxidase (Sigma-Aldrich, St. Louis, MO, USA) in 50 mM Tris-HCl pH 8.0 and 5 mM CaCl2 was added to measure the produced choline. The reaction was monitored at 37 °C in a fluorescence plate reader using excitation at 530 nm and reading at 590 nm, every 5 min for 30 min. The velocity of the reaction and the remaining activity of ATX were calculated at the linear phase of the reaction and dose-response inhibition graphs were plotted with GraphPad Software (GraphPad Software, San Diego, CA, USA). […] In order to evaluate a possible effect of the compounds on the second (choline oxidase) and third (HRP) enzymes of the Amplex Red assay, we also performed the assay in the absence of ATX but in the presence of the compounds. Instead of ATX, we added choline chloride at a final concentration of 2 µM so as the second and third steps of the assay could proceed normally.

phosphodiesterase (PDE) = assay: Phosphodiesterase (PDE) colorimetric assay, 3',5'-cAMP and 3',5'-cGMP as substrates; format: biochemical; conditions: for activity against PDE: in words
Source text: This colorimetric assay kit uses 3′,5′-cAMP and 3′,5′-cGMP as substrates, and it is useful for the screening of inhibitors of nucleotide phosphodiesterase activity.

mouse ATX [2] = target: T1, mouse ATX; assay: Mode of inhibition, modified Amplex assay, Lineweaver-Burk plots; format: biochemical; conditions: various LPC and inhibitor concentrations
Experimental: Lastly, to get insight into the mode of inhibition of the new ATX inhibitors developed in the present study, the Lineweaver–Burk plots were performed.
To determine the mode of inhibition of ATX by each inhibitor, a modified Amplex assay was employed. […] Mouse ATX from Sino Biological was used in all mode of inhibition assays. Thereafter, the velocity (V) of the reaction was calculated and the reciprocal of velocity (1/V) was plotted against the reciprocal of substrate concentration (1/S) in Lineweaver–Burk graphs using GraphPad Software (GraphPad Software, San Diego, CA, USA).

ATX [3] = target: T2, ATX (Homo sapiens, UniProt Q13822); assay: IC50 Eleanna (Table S2, method not described); format: biochemical
ATX [4] = target: T2, ATX; assay: Amplex Red Lyso-phospholipase D assay, human ATX; format: biochemical; parameters: purchased Sino Biological; conditions: for inhibition at 30 µM: read-out: %inhibition at 30uM
Solubility (Table S1) = conditions: YES/NO
ATX [5] = target: T2, ATX; conditions: LPC assay; cited from earlier work
ATX [6] = target: T2, ATX; conditions: cited from earlier work
[7] = recombinant mouse ATX 2 nM, LPC 16:0 substrate, Amplex Red, read-out: IC50 mATX
[8] = Table S2, read-out: IC50 Eleanna
[9] = recombinant human ATX 2 nM, LPC 16:0 substrate, Amplex Red, read-out: IC50 hATX
[10] = in vitro IC50 (hATX 1nM), Table S2, hATX 1nM
[11] = in vitro IC50 (Sino hATX 2nM), Table S2, Sino hATX 2nM
[12] = in vitro IC50 (mATX 2nM), Table S2, mATX 2nM

COc1cccc(NC(=S)N2CCn3cccc3C2c2ccc(OC)c(OC)c2)c1 (stereo not drawn) [KM-26, 1-(3,4-dimethoxyphenyl)-N-(3-methoxyphenyl)-3,4-dihydro-1H-pyrrolo[1,2-a]pyrazine-2-carbothioamide]
IC50 (mouse ATX [1]; [7]): 7.4 µM
IC50 (phosphodiesterase (PDE)): 2.8 µM
activity against PDE (phosphodiesterase (PDE)): outstanding activity
Mode of Inhibition (mouse ATX [2]): competitive
IC50 (ATX [3]; [8]): 0.8 µM
inhibition at 30 µM (ATX [4]; Table S2, at 30uM): 83.3%
IC50 (ATX [4]; [9]): 5.6 µM

CCOC(=O)c1c(CN2CCCCC2)n(Cc2ccccc2)c2cc(Br)c(O)cc12 [KM-14, ethyl 1-benzyl-6-bromo-5-hydroxy-2-(piperidin-1-ylmethyl)-1H-indole-3-carboxylate]
IC50 (mouse ATX [1]): 5.9 µM
Mode of Inhibition (mouse ATX [2]): mixed
IC50 (ATX [3]): 0.8 µM
IC50 (ATX [4]): 13.8 µM
inhibition at 30 µM (ATX [4]): 69%

O=C1Nc2ccccc2/C1=C/c1cc2ccccc2n1S(=O)(=O)c1ccccc1 [SCR01013, (3Z)-3-[[1-(Benzenesulfonyl)indol-2-yl]methylidene]-1H-indol-2-one]
IC50 (mouse ATX [1]; [7]): 67 µM
IC50 (ATX [3]; [8]): 0.6 µM
Solubility (Solubility (Table S1)): YES
inhibition at 30 µM (ATX [4]; Table S2, at 30uM): 13.2%
IC50 (ATX [4]; [10]): 43 µM
IC50 (ATX [4]; [9]): 79 µM

O=C(Nc1c2c(nn1-c1ccc([N+](=O)[O-])cc1)CSC2)c1cccc2ccccc12 [SC-49, N-[2-(4-nitrophenyl)-4,6-dihydrothieno[3,4-c]pyrazol-3-yl]naphthalene-1-carboxamide]
IC50 (mouse ATX [1]): 9.7 µM
activity against PDE (phosphodiesterase (PDE)): outstanding activity
IC50 (ATX [3]): 0.2 µM
IC50 (ATX [4]; IC50 hATX, recombinant human ATX 2 nM, LPC 16:0 substrate, Amplex Red): 10.2 µM
IC50 (ATX [4]; [11]): 10.2 µM
IC50 (ATX [4]; [10]): 9 µM
inhibition at 30 µM (ATX [4]): 65.8%

CCOC(=O)c1sc(SCc2ccccc2)c2c1CC(c1ccc(C)cc1)CC2O (stereo not drawn) [KM03601, ethyl 3-benzylsulfanyl-4-hydroxy-6-(4-methylphenyl)-4,5,6,7-tetrahydro-2-benzothiophene-1-carboxylate]
IC50 (mouse ATX [1]; [12]): 15 µM
IC50 (mouse ATX [1]; [7]): 14.9 µM
Mode of Inhibition (mouse ATX [2]): competitive
IC50 (ATX [3]; [8]): 0.5 µM
Solubility (Solubility (Table S1)): YES
inhibition at 30 µM (ATX [4]; Table S2, at 30uM): 43.6%
IC50 (ATX [4]; [11]): 30.6 µM
IC50 (ATX [4]; [10]): 10 µM
IC50 (ATX [4]; [9]): 30.5 µM

Cc1[nH]c2ccccc2c1C1=CCN(S(=O)(=O)c2cccc3nsnc23)CC1 [SC-41, 4-{[4-(2-Methyl-1H-indol-3-yl)-3,6-dihydropyridin-1(2H)-yl]sulfonyl}-2,1,3-benzothiadiazole]
IC50 (mouse ATX [1]; [7]): 4 µM
Mode of Inhibition (mouse ATX [2]): uncompetitive
IC50 (ATX [3]; [8]): 2.3 µM
inhibition at 30 µM (ATX [4]; Table S2, at 30uM): 70.6%
IC50 (ATX [4]; [9]): 13.6 µM

Cc1cccc(C)c1NC(=O)CSc1nc2ccccc2c(=O)n1CCc1cccs1 [KM-28, N-(2,6-dimethylphenyl)-2-[4-oxo-3-(2-thiophen-2-ylethyl)quinazolin-2-yl]sulfanylacetamide]
IC50 (mouse ATX [1]; [7]): 3 µM
IC50 (phosphodiesterase (PDE)): 0.9 µM
activity against PDE (phosphodiesterase (PDE)): outstanding activity
IC50 (ATX [3]; [8]): 2 µM
inhibition at 30 µM (ATX [4]; Table S2, at 30uM): 84.2%
IC50 (ATX [4]; [11]): 1.85 µM
IC50 (ATX [4]; [9]): 1.8 µM

COc1ccccc1NC(=S)N1CCn2cccc2C1c1ccc(OC)c(OC)c1 (stereo not drawn) [KM-41, 1-(3,4-dimethoxyphenyl)-N-(2-methoxyphenyl)-3,4-dihydro-1H-pyrrolo[1,2-a]pyrazine-2-carbothioamide]
IC50 (mouse ATX [1]; [12]): 60 µM
IC50 (ATX [3]; [8]): 0.3 µM
inhibition at 30 µM (ATX [4]; Table S2, at 30uM): 33.5%
IC50 (ATX [4]; [10]): 38 µM

CCCCCCCCCCCCCC(=O)Nc1ccc(CP(=O)(O)O)cc1 [Compound S32826]
IC50 (ATX [5]): 0.0056 µM

CCOC(=O)c1c(CN2CCCC2)n(-c2ccccc2)c2cc(Br)c(OC)cc12 [KM-3, ethyl 6-bromo-5-methoxy-1-phenyl-2-(pyrrolidin-1-ylmethyl)indole-3-carboxylate]
IC50 (mouse ATX [1]; [12]): 57 µM
inhibition at 30 µM (ATX [4]; Table S2, at 30uM): 17%
IC50 (ATX [4]; [10]): 54 µM

CCOC(=O)C1CCN(C(=O)Cc2c(Sc3ccc(Cl)cc3)[nH]c3ccccc23)CC1 [KM-24, ethyl 1-[2-[2-(4-chlorophenyl)sulfanyl-1H-indol-3-yl]acetyl]piperidine-4-carboxylate]
IC50 (mouse ATX [1]; [7]): 6.5 µM
Mode of Inhibition (mouse ATX [2]): mixed
IC50 (ATX [3]; [8]): 0.5 µM
inhibition at 30 µM (ATX [4]; Table S2, at 30uM): 69.8%
IC50 (ATX [4]; [9]): 14.6 µM

N[C@@H](Cc1c[nH]cn1)C(=O)O [L-Histidine]
IC50 (ATX inhibition) (ATX [6]): millimolar range

O=C(CCN1CCN(C(=O)OCc2cc(Cl)cc(Cl)c2)CC1)c1ccc2[nH]c(=O)oc2c1 [PF-8380, 3,5-Dichlorobenzyl 4-(3-oxo-3-(2-oxo-2,3-dihydrobenzo[d]oxazol-6-yl)propyl)piperazine-1-carboxylate, reference compound]
IC50 (phosphodiesterase (PDE)): 0.0011 µM
Mode of Inhibition (mouse ATX [2]): competitive
Solubility (Solubility (Table S1)): YES
